Measurements published in patent US10414811B2, “Protease-resistant lipidated GLP-1 analogs” (MEDIMMUNE LIMITED, priority 2015, dated 2019).
Like-named read-outs stand apart in the source and are kept apart here. Square brackets hold non-standard residues; d marks the D form. Peptide text beside a SMILES is read from it. αMeF = C[C@](N)(Cc1ccccc1)C(=O)O; αMeK = C[C@](N)(CCCCN)C(=O)O; αMeS = C[C@](N)(CO)C(=O)O; Aib = CC(C)(N)C(=O)O

What was measured:
Assay type in all cases: cell-based
[1] = biological target: T1, human glucose-dependent insulinotropic peptide receptor (GIPR) (Homo sapiens, UniProt P48546); experiment: cAMP assay, human GIPR cells; conditions: cAMP assay
T1 construct: expressed in transfected cells
T1 sequence (P48546 22-466): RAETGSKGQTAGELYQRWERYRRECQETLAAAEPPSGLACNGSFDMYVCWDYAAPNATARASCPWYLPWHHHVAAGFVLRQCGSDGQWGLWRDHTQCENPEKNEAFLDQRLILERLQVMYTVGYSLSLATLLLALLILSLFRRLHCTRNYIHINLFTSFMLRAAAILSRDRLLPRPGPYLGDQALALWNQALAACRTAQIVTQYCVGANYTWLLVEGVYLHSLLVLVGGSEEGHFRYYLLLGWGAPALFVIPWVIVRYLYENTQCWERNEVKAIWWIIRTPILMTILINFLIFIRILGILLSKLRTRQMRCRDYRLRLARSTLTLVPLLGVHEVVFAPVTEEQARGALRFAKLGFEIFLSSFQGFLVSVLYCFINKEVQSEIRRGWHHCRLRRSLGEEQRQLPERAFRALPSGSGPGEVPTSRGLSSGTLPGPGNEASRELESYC
Summary of the method: (§1)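 Peptide-stimulated cAMP measured by two-step HTRF after a 30 min room-temperature incubation with receptor-expressing cells (hGLP-1R, hGIPR at 1×10^5 cells/ml; hGCGR at 2×10^5 cells/ml). Duplicate dilutions; EC50 from 4-parameter logistic fit of % Delta F.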

[2] = biological target: T2, human GLP-1 receptor (GLP-1R) (Homo sapiens, UniProt P43220); experiment: cAMP assay, human GLP-1R cells
T2 construct: expressed in transfected cells
Summary of the method: as §1

GLP-1R (INS1e assay) = biological target: T3, GLP-1R (INS1e assay) (Rattus norvegicus, UniProt P32301); experiment: INS1e assay, cAMP activity at GLP-1R; conditions: mono-lipidated peptides
T3 construct: endogenous in cells; host or cells: INS-1E cells
T3 sequence (P32301 22-463): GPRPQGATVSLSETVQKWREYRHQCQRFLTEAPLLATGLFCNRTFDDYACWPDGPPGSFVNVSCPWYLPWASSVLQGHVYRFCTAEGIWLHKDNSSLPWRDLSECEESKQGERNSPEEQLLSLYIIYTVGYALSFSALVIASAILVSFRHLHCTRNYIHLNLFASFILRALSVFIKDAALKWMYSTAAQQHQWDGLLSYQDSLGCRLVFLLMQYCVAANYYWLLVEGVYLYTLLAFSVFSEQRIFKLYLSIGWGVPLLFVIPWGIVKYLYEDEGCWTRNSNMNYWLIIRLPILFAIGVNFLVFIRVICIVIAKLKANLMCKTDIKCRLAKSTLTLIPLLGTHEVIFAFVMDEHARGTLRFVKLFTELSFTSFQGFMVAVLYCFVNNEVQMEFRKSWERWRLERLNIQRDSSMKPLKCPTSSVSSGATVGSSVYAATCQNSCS
Summary of the method: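 cAMP was quantified by two-step HTRF, using anti-cAMP cryptate donor and cAMP-d2 acceptor, each diluted 1/20 in conjugate and lysis buffer. EC50 values of the synthetic peptides were derived from the cAMP readout.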

[3] = biological target: T4, human glucagon receptor (GCGR) (Homo sapiens, UniProt P47871); experiment: cAMP assay, human GCGR cells; conditions: cAMP assay
T4 construct: expressed in transfected cells
Summary of the method: as §1

[4] = first determination (n1), read-out: Primary assay EC50 GIP-R (n1)
[5] = second determination (n2), read-out: Primary assay EC50 GIP-R (n2)
[6] = cAMP assay, first determination (n1), read-out: Primary assay EC50 GLP-1R n1
[7] = cAMP assay, second determination (n2), read-out: Primary assay EC50 GLP-1R n2
[8] = mean of n1 and n2, read-out: Mean pM GLP-1R
[9] = mean of n1 and n2, read-out: INS1e assay EC50 Mean pM GLP-1R
[10] = replicate n1, read-out: INS1e assay EC50 GLP-1R n1
[11] = replicate n2, read-out: INS1e assay EC50 GLP-1R n2
[12] = first determination (n1), read-out: Primary assay EC50 Gluc-R (n1)
[13] = second determination (n2), read-out: Primary assay EC50 Gluc-R (n2)

T2 sequence (P43220 24-463): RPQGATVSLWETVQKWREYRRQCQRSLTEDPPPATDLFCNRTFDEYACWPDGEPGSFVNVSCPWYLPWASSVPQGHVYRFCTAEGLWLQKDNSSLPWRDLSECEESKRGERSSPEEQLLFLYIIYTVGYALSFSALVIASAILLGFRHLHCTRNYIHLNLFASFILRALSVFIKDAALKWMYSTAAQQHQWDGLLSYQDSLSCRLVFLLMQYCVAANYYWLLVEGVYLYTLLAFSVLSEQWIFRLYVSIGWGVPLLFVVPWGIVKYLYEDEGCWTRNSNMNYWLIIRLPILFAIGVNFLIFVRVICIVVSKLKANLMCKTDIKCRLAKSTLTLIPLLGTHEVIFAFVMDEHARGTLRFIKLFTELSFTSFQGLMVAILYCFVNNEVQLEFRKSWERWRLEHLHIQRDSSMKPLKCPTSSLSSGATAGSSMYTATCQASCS
T4 sequence (P47871 26-477): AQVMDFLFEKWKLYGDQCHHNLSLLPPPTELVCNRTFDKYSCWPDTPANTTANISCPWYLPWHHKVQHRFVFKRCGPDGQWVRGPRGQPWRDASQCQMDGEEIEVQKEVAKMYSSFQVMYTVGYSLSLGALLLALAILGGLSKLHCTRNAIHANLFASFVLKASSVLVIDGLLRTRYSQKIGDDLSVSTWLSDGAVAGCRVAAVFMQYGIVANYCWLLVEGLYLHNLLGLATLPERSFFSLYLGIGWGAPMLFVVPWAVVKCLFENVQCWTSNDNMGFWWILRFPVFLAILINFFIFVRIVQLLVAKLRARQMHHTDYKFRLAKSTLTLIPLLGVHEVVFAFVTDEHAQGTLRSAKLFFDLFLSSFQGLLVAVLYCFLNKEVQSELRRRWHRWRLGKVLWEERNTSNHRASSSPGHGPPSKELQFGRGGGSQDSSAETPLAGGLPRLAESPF

EC50 [1, 4] [nM]	EC50 [1, 5] [nM]	EC50 [2, 6] [pM]	EC50 [2, 7] [pM]	EC50 [2, 8] [pM]	EC50 (GLP-1R (INS1e assay); [9]) [pM]	EC50 (GLP-1R (INS1e assay); [10]) [pM]	EC50 (GLP-1R (INS1e assay); [11]) [pM]	EC50 [3, 12] [nM]	EC50 [3, 13] [nM]	Compound
≥ 28	≥ 28	2	1.4	1.7	56	49.7	63	≥ 28	≥ 28	CCCCCCCCCCCCCCCC(=O)N[C@@H](CCC(=O)NCCCC[C@H](NC(=O)[C@H](C)NC(=O)[C@@H](NC(=O)[C@](C)(Cc1ccccc1)NC(=O)[C@H](CCC(=O)O)NC(=O)[C@](C)(CCCCN)NC(=O)[C@H](C)NC(=O)[C@H](C)NC(=O)[C@H](CCC(=O)O)NC(=O)CNC(=O)[C@H](CCC(=O)O)NC(=O)[C@H](CC(C)C)NC(=O)[C@](C)(Cc1ccccc1)NC(=O)[C@H](CO)NC(=O)[C@](C)(CO)NC(=O)[C@@H](NC(=O)[C@H](CC(=O)O)NC(=O)[C@H](CO)NC(=O)[C@@H](NC(=O)[C@](C)(Cc1ccccc1)NC(=O)[C@H](CO)NC(=O)CNC(=O)[C@H](CCC(=O)O)NC(=O)C(C)(C)NC(=O)[C@@H](N)Cc1c[nH]cn1)[C@@H](C)O)C(C)C)[C@@H](C)CC)C(=O)N[C@H](C(=O)N[C@H](C(=O)N[C@@](C)(CCCCN)C(=O)NCC(=O)NCC(N)=O)C(C)C)C(C)C)C(=O)O [compound 75]
≥ 27	≥ 27	2.5	1.2	1.9	128	81.7	175	≥ 27	≥ 27	CCCCCCCCCCCC(=O)NCCOCCOCC(=O)NCCOCCOCC(=O)NCCCC[C@H](NC(=O)[C@@H](NC(=O)[C@@H](NC(=O)[C@](C)(Cc1ccccc1)NC(=O)[C@H](C)NC(=O)[C@@H](NC(=O)[C@](C)(Cc1ccccc1)NC(=O)[C@H](CCC(=O)O)NC(=O)[C@](C)(CCCCN)NC(=O)[C@H](C)NC(=O)[C@H](C)NC(=O)[C@H](CCC(=O)O)NC(=O)CNC(=O)[C@H](CCC(=O)O)NC(=O)[C@H](CC(C)C)NC(=O)[C@](C)(Cc1ccccc1)NC(=O)[C@H](CO)NC(=O)[C@](C)(CO)NC(=O)[C@@H](NC(=O)[C@H](CC(=O)O)NC(=O)[C@H](CO)NC(=O)[C@@H](NC(=O)[C@](C)(Cc1ccccc1)NC(=O)[C@H](CO)NC(=O)CNC(=O)[C@H](CCC(=O)O)NC(=O)C(C)(C)NC(=O)[C@@H](N)Cc1c[nH]cn1)[C@@H](C)O)C(C)C)[C@@H](C)CC)C(C)C)C(C)C)C(=O)NCC(=O)NCC(N)=O [compound 171]
≥ 31	≥ 31				13	16	10.5	≥ 31	≥ 31	CC[C@H](C)[C@H](NC(=O)[C@](C)(Cc1ccccc1)NC(=O)[C@H](CCC(=O)O)NC(=O)[C@](C)(CCCCN)NC(=O)[C@H](C)NC(=O)[C@H](C)NC(=O)[C@H](CCC(=O)O)NC(=O)CNC(=O)[C@H](CCC(=O)O)NC(=O)[C@H](CC(C)C)NC(=O)[C@](C)(Cc1ccccc1)NC(=O)[C@H](CO)NC(=O)[C@](C)(CO)NC(=O)[C@@H](NC(=O)[C@H](CC(=O)O)NC(=O)[C@H](CO)NC(=O)[C@@H](NC(=O)[C@](C)(Cc1ccccc1)NC(=O)[C@H](CO)NC(=O)CNC(=O)[C@H](CCC(=O)O)NC(=O)C(C)(C)NC(=O)[C@@H](N)Cc1c[nH]cn1)[C@@H](C)O)C(C)C)C(=O)N[C@@H](C)C(=O)N[C@@](C)(Cc1ccccc1)C(=O)N[C@H](C(=O)N[C@H](C(=O)N[C@@H](CCC(=O)O)C(=O)NCC(=O)NCC(N)=O)C(C)C)C(C)C [compound 43] (H-H[Aib]EGS[αMeF]TSDV[αMeS]S[αMeF]LEGEAA[αMeK]E[αMeF]IA[αMeF]VVEGG-NH2)
